“Also recorded” adds a separate entry of the source. Where two headings read alike, the source gives them in different places.
Key:
[1] = tested on: H3K4 trimethylation activity in Kmt2d+/βGeo MEFs; assay: H3K4me3 indicator in murine embryonic fibroblasts (MEFs) from Kmt2d+/βGeo and Kmt2d+/+ mice; format: cell-based, mouse; conditions: Kmt2d+/βGeo MEFs; FIG. 18H, 22A, 23
Text: An H3K4 trimethylation reporter was also created (FIG. 5B). This reporter is based on the H3 tail on one end and the TBP associated factor III (TAFIII) […] on the other end; the TAFIII […] only identifies and binds to trimethylated K4 on H3. When the H3K4 site gets trimethylated, the TAFIII […] can bind to the modified H3 tail and bring the two parts of the separated GFP in close proximity. The activity of the epigenetic modification system can be quantified through fluorescence.
Epigenetic reporter alleles were synthesized (OriGene, Rockville, Md.) using published sequences for component elements (Baird et al. (1999) Proc. Natl. Acad. Sci. 96:11241-6; Souslova et al. (2007) BMC Biotechnol. 7:37). Single nucleotide mutations were created using the QuickChange Lightening kit (Agilent Technologies Inc, Santa Clara, Calif.). For H4ac indicator, K5R, K8R, K12R, K16R and K20R (MUT indicator) were introduced. For H3K4me3 indicator, K4Q and D890A/W891A and M882A (three separate constructs) were introduced. […] FACS data were analyzed using FlowJo (Tree Star Inc, Ashland, Oreg.). […]
Epigenetic reporter systems were created that monitor either H4 acetylation or H3K4 trimethylation machinery activity in an effort to determine whether there is an ongoing activity deficiency in cells from Kmt2d^+/βGeo mice (FIG. 18A). Both reporter alleles encode halves of green fluorescent protein separated by a flexible linker region (Baird et al. (1999) Proc. Natl. Acad. Sci. 96: 11241-6) with a histone tail and a histone reader at the N- and C-termini, respectively. When the histone tail corresponding to either H4 or H3 is modified by acetylation or methylation, respectively, GFP structure and function are reconstituted, as detected by a fluorescent readout (FIG. 18B). The acetyl reporter protein quantifies the activity of the acetylation machinery (acetylation of H4 specifically at sites K5, K8, K12, and K16) and comprises an H4 tail (residues 1-30) on one end and a TATA binding protein (TBP)-associated factor II (TAFII) bromodomain on the other end (FIG. 18A). […]

[2] = tested on: mouse models of Rubinstein-Taybi syndrome; conditions: cited from earlier work
[3] = tested on: H4 acetylation machinery (H4ac indicator); assay: H4 acetylation (H4ac) indicator reporter allele, GFP fluorescence by FACS in stably transfected T293/HEK293 cells; format: cell-based; conditions: FIG. 18C, 18D, 19A, 19B, 20
Text: The acetyl reporter protein quantifies the activity of the acetylation machinery (acetylation of H4 specifically at the 5th, 8th, 12th and 16th Lysine's) and comprises an H4 tail on one end (the target for acetylation) and a TBP associated factor II (TAFII) bromodomain on the other end of the reporter protein (FIG. 5A). The TAFII bromodomain only recognizes and binds to the acetylated H4 tail, resulting in reconstitution of GFP structure and function (i.e. fluorescence). Therefore, the reporter protein has no fluorescence unless it is acetylated by the acetylation system of the nucleus of the cell.
Epigenetic reporter alleles were synthesized (OriGene, Rockville, Md.) using published sequences for component elements (Baird et al. (1999) Proc. Natl. Acad. Sci. 96:11241-6; Souslova et al. (2007) BMC Biotechnol. 7:37). […] FACS data were analyzed using FlowJo (Tree Star Inc, Ashland, Oreg.). […]
Epigenetic reporter systems were created that monitor either H4 acetylation or H3K4 trimethylation machinery activity in an effort to determine whether there is an ongoing activity deficiency in cells from Kmt2d^+/βGeo mice (FIG. 18A). Both reporter alleles encode halves of green fluorescent protein separated by a flexible linker region (Baird et al. (1999) Proc. Natl. Acad. Sci. 96: 11241-6) with a histone tail and a histone reader at the N- and C-termini, respectively. […]

HDAC = conditions: Phiel et al. (2001); cited from earlier work

Nc1ccccc1NC(=O)c1ccc(CNC(=O)OCc2cccnc2)cc1 [MS275, Pyridin-3-ylmethyl N-[[4-[(2-aminophenyl)carbamoyl]phenyl]methyl]carbamate]
H3K4 trimethylation activity in Kmt2d+/βGeo cells upon treatment [1]: enhanced; also recorded: improved

CC(C=CC(=O)NO)=CC(C)C(=O)c1ccc(N(C)C)cc1 (centres unmarked) [trichostatin A, 7-[4-(dimethylamino)phenyl]-N-hydroxy-4,6-dimethyl-7-oxohepta-2,4-dienamide]
neurological phenotypes in Rubinstein-Taybi mouse models ([2]; intraperitoneal administration): respond

O=C(CCCCCCC(=O)Nc1ccccc1)NO [SAHA, N′-hydroxy-N-phenyl-octanediamide]
H4ac indicator fluorescence response to increasing amounts of drug [3]: linear fluorescence response; also recorded: increasing fluorescence; also recorded: increases acetylation of the indicator; also recorded: increased signal | neurological phenotypes in Rubinstein-Taybi mouse models ([2]; intracerebroventricular administration): respond

CCCC(CCC)C(=O)O [valproic acid, 2-Propylpentanoic acid]
HDAC inhibitor activity (HDAC): potent HDACi

From patent US11357748B2, “Methods for treating mendelian disorders of the epigenetic machinery” (THE JOHNS HOPKINS UNIVERSITY, priority 2014, dated 2022)
